Experimental findings from EPA's ToxValDB 9.5 (doi:10.2903/j.efsa.2016.4604) are described below.

One data set relates to Folsomia candida. The following applies: chronic/long-term; duration: 28 days.
In a further data set the test system is Cyprinus carpio. The following applies: acute; duration: 96 hours; mortality.
Another data set has as its system Tagia sp. The note with it: for NOEC: chronic/long-term, duration: 8 weeks.
The subject of another data set is Typhlodromus pyri. Put plainly: LR50; higher = less toxic. The following applies: not reported; mortality.
In the next data set the test system is Apis mellifera. The following applies: acute, mortality.
In another data set the test system is Canidae. The following applies: chronic; duration: 1 years; oral; diet; Dog Other; histopathology: nonneoplastic.
In another data set the test system is Daphnia magna. The note with it: chronic/long-term; duration: 21 days; mobility.
Another data set concerns Pimephales promelas. The following applies: chronic/long-term; duration: 35 days; body weight.
A further data set has as its system Colinus virginianus. The note with it: acute, oral, mortality.

Molecules are shown by their SMILES. ≈ marks a conversion by molar mass, not a printed value.

Take `CC(=O)c1ccccc1NC(=O)c1c(C)nn(C)c1F`: the NOEC with Folsomia candida is 1000 mg/kg; with Tagia sp. it was 500 mg/kg. The LC50 in the data set on Cyprinus carpio was over 0.799 µg/mL.

The term NOAEL denotes the highest tested level that showed no adverse finding. Take `Cc1nn(C)c(F)c1C(=O)Nc1ccccc1C(C)CC(C)C` (configuration not stated) [Penflufen]: in the data set on Typhlodromus pyri, the LR50 was over 250 g/ha. The LD50 in the data set on Apis mellifera (duration: 48 hours, dermal) was over 100 µg/piece; with Apis mellifera (oral, unspecified), over 105 µg/piece; with Rattus norvegicus (acute, oral, mortality), over 2000 mg/kg-day; in the data set on Colinus virginianus (diet), over 1700 mg/kg-day; in the data set with Colinus virginianus, over 4000 mg/kg-day. Moreover, the no-observed-adverse-effect level (NOAEL) with Canidae was determined as 7.7 mg/kg-day; with Rattus norvegicus (acute, oral, F, clinical signs) it was 50 mg/kg-day; in the data set with Rattus norvegicus (chronic, duration: 2 years, oral, diet, histopathology: nonneoplastic) it was 4 mg/kg-day; with Rattus norvegicus (reproduction developmental, M, body weight) it was 58 mg/kg-day. Besides, the NOEC in the data set on Daphnia magna amounted to 1.53 mg/L; in the data set with Folsomia candida, 231 mg/kg; in the data set with Pimephales promelas, 23.4 µg/L; in the data set with Tagia sp., 33 mg/kg. Further, the LC50 in the data set with Cyprinus carpio was 0.103 µg/mL (≈ 0.325 µM); in the data set with Tagia sp. (acute, duration: 14 days, mortality), over 1000 mg/kg.

With `Cc1nn(C)c(F)c1C(=O)Nc1ccccc1C(C)CC(C)(C)O` (configuration not stated), the NOEC in the data set with Folsomia candida and in the data set on Tagia sp. was 1000 mg/kg in each case. The same compound had an LC50 with Cyprinus carpio of over 15.7 µg/mL.
